From patent US20020037931A1, “Substituted nitrated catechols, their use in the treatment of some central and peripheral nervous system disorders and pharmaceutical compositions containing them” (priority 2000, published 2002)

Assays:
COMT [1] = biological target: T1, COMT (Homo sapiens, UniProt P21964); test: COMT activity in intact SK-N-SH cell monolayers; format: cell-based; conditions: SK-N-SH cells; test compound 100 nM; means±SEM, n=4-8
T1 construct: COMT activity was evaluated in cell monolayers by the ability to methylate adrenaline; host or cells: SK-N-SH cells
T1 sequence (P21964 1-271): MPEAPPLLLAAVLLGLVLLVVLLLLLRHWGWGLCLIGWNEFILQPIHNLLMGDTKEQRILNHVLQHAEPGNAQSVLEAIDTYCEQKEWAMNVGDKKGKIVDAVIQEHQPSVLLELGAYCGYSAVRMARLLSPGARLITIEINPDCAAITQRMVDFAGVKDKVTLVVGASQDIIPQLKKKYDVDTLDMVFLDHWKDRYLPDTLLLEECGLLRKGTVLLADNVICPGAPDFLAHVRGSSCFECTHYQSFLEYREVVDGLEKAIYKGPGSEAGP

COMT [2] = test: COMT activity (methylation of adrenaline to metanephrine) in rat brain homogenates; format: biochemical; conditions: rat brain homogenate; test compound 100 nM; means±SEM, n=4-8
COMT [3] = test: COMT activity (methylation of adrenaline to metanephrine) in rat liver homogenates; format: biochemical; conditions: rat liver homogenate; test compound 3 μM; means±SEM, n=4-8

| SMILES | COMT activity, SK-N-SH (% of control) (COMT [1]) | COMT activity, Brain (% of control) (COMT [2]) | COMT activity, Liver (% of control) (COMT [3]) |
| --- | --- | --- | --- |
| CCOC(=O)Oc1ccc(C(=O)CCc2ccccc2)c([N+](=O)[O-])c1OC(=O)OCC [Compound 22, Carbonic acid, 2-ethoxycarbonyloxy-3-nitro-4-(3-phenyl-propionyl)-phenyl ester ethyl ester] | 12 ± 1 % of control | 9 ± 0 % of control | 0.3 ± 0.1 % of control |
| CCOC(=O)Oc1cc(C(=O)c2ccccc2)c(C(=O)c2ccccc2)c([N+](=O)[O-])c1OC(=O)OCC [Compound 23, Carbonic Acid 4,5-Dibenzoyl-2-ethoxycarbonyloxy-3-nitro-phenyl Ester Ethyl Ester] | 24 ± 1 % of control | 10 ± 1 % of control | 2.5 ± 1.2 % of control |
| CC(=O)Oc1cc2c(c([N+](=O)[O-])c1OC(C)=O)C(=O)C(C)(C)CC2 [Compound 25, Acetic Acid, 3-Acetoxy-7,7-dimethyl-1-nitro-8-oxo-5,6,7,8-tetrahydro-naphthalen-2-yl Ester] | 39 ± 1 % of control | 19 ± 1 % of control | 1.7 ± 0.1 % of control |
| O=C(CCN1CCOCC1)c1ccc(O)c(O)c1[N+](=O)[O-] [Compound 26, 1-(3,4-dihydroxy-2-nitro-phenyl)-3-morpholin4-yl-propan-1-one] | 12 ± 1 % of control | 9 ± 0 % of control | 0.9 ± 0.1 % of control |
| O=C(CCN1CCCCC1)c1ccc(O)c(O)c1[N+](=O)[O-] [Compound 27, 1-(3,4-Dihydroxy-2-nitro-phenyl)-3-piperidin-1-yl-propan-1-one] | 5 ± 1 % of control | 15 ± 1 % of control | 2.4 ± 0.2 % of control |
| O=C(CCN1CCCC1)c1ccc(O)c(O)c1[N+](=O)[O-] [Compound 28, 1-(3,4-Dihydroxy-2-nitro-phenyl)-3-pyrrolidin-1-yl-propan-1-one] | 7 ± 0 % of control | 14 ± 1 % of control | 2.2 ± 0.2 % of control |
| O=C1c2c(cc(O)c(O)c2[N+](=O)[O-])CC1CN1CCOCC1 (stereo not drawn) [Compound 29, 5,6-Dihydroxy-2-morpholin-4-ylmethyl-7-nitro-indan-1-one] | 21 ± 1 % of control | 12 ± 1 % of control | 0.6 ± 0.0 % of control |
| O=C1c2c(cc(O)c(O)c2[N+](=O)[O-])CC1CN1CCCCC1 (stereo not drawn) [Compound 30, 5,6-Dihydroxy-7-nitro-2-piperidin-1-ylmethyl-indan-1-one] | 17 ± 1 % of control | 8 ± 0 % of control | 1.4 ± 0.1 % of control |
| CCN(CC)C(=O)C1CCCN(CCC(=O)c2ccc(O)c(O)c2[N+](=O)[O-])C1 (stereo not drawn) [Compound 31, 1-[3-(3,4-Dihydroxy-2-nitro-phenyl)-3-oxo-propyl]-piperidine-3-carboxylic acid diethylamide] | 13 ± 2 % of control | 8 ± 0 % of control | 1.7 ± 0.6 % of control |
| CC1CCCN(CCC(=O)c2ccc(O)c(O)c2[N+](=O)[O-])C1 (stereo not drawn) [Compound 32, 1-(3,4-Dihydroxy-2-nitro-phenyl)-3-(3-methyl-piperidin-1-yl)-propan-1-one] | 11 ± 2 % of control | 10 ± 0 % of control | 2.3 ± 0.2 % of control |
| CC1CCN(CCC(=O)c2ccc(O)c(O)c2[N+](=O)[O-])CC1 [Compound 33, 1-(3,4-Dihydroxy-2-nitro-phenyl)-3-(4-methyl-piperidin-1-yl)-propan-1-one] | 14 ± 0 % of control | 6 ± 0 % of control | 2.2 ± 0.3 % of control |
| O=C(CCN1CCCC2CCCCC21)c1ccc(O)c(O)c1[N+](=O)[O-] (stereo not drawn) [Compound 34, 1-(3,4-Dihydroxy-2-nitro-phenyl)-3-(octahydro-quinolin-1-yl)-propan-1-one] | 11 ± 2 % of control | 5 ± 0 % of control | 1.6 ± 0.2 % of control |
| CC1CC(C)CN(CCC(=O)c2ccc(O)c(O)c2[N+](=O)[O-])C1 (stereo not drawn) [Compound 35, 1-(3,4-Dihydroxy-2-nitro-phenyl)-3-(3,5-dimethyl-piperidin-1-yl)-propan-1-one] | 13 ± 1 % of control | 9 ± 0 % of control | 23. ± 0.3 % of control |
| O=C(CCN1CCC(Cc2ccccc2)CC1)c1ccc(O)c(O)c1[N+](=O)[O-] [Compound 36, 3-(4-benzyl-piperidin-1-yl)-1-(3,4-Dihydroxy-2-nitro-phenyl)-propan-1-one] | 9 ± 2 % of control | 6 ± 0 % of control | 2.2 ± 0.4 % of control |
| COc1ccc(N2CCN(CCC(=O)c3ccc(O)c(O)c3[N+](=O)[O-])CC2)cc1 [Compound 37, 1-(3,4-Dihydroxy-2-nitro-phenyl)-3-[4-(4-methoxy-phenyl)-piperazin-1-yl]-propan-1-one] | 6 ± 2 % of control | 6 ± 0 % of control | 1.7 ± 0.3 % of control |
| O=C(CCN1CCN(c2cccc(C(F)(F)F)c2)CC1)c1ccc(O)c(O)c1[N+](=O)[O-] [Compound 38, 1-(3,4-Dihydroxy-2-nitro-phenyl)-3-[4-(3-trifluoromethyl-phenyl)-piperazin-1-yl]-propan-1-one] | 6 ± 1 % of control | 7 ± 0 % of control | 11.2 ± 1.5 % of control |
| CCCN1CCN(CCC(=O)c2ccc(O)c(O)c2[N+](=O)[O-])CC1 [Compound 39, 1-(3,4-Dihydroxy-2-nitro-phenyl)-3-(4-propyl-piperazin-1-yl)-propan-1-one] | 11 ± 0 % of control | 8 ± 0 % of control | 0.8 ± 0.2 % of control |
| CC(=O)Oc1ccc(C(=O)C=Cc2ccccc2)c([N+](=O)[O-])c1OC(C)=O [Compound 40, Acetic acid, 6-acetoxy-2-nitro-3-(3-phenyl-acryloyl)-phenyl ester] | 8 ± 1 % of control | 10 ± 0 % of control | 1.6 ± 0.4 % of control |
| O=C(C=Cc1ccccc1)c1ccc(O)c(O)c1[N+](=O)[O-] [Compound 41, 1-(3,4-dihydroxy-2-nitro-phenyl)-3-phenyl-propenone] | 5 ± 0 % of control | 9 ± 1 % of control | 1.1 ± 0.2 % of control |
| O=C(CN1CCOCC1)c1ccc(O)c(O)c1[N+](=O)[O-] [Compound 42, 1-(3,4-Dihydroxy-2-nitro-phenyl)-2-morpholin-4-yl-ethanone] | 27 ± 1 % of control | 13 ± 0 % of control | 0.8 ± 0.2 % of control |
| O=C1c2c(cc(O)c(O)c2[N+](=O)[O-])CC1CN1CCN(c2cccc(C(F)(F)F)c2)CC1 (stereo not drawn) [Compound 43, 5,6-Dihydroxy-7-nitro-2-[4-(3-trifluoromethyl-phenyl)-piperazin-1-ylmethyl]-indan-1-one] | 19 ± 7 % of control | 10 ± 1 % of control | 0.9 ± 0.2 % of control |
| O=C1c2c(cc(O)c(O)c2[N+](=O)[O-])CC1CN1CCN(c2ccccc2)CC1 (stereo not drawn) [Compound 44, 5,6-Dihydroxy-7-nitro-2-(4-phenyl-piperazin-1-ylmethyl)-indan-1-one] | 9 ± 2 % of control | 10 ± 0 % of control | 0.6 ± 0.2 % of control |
| CC(=O)Oc1ccc(C(=O)Cc2ccccc2)c([N+](=O)[O-])c1OC(C)=O [Compound 45, Acetic acid, 6-acetoxy-2-nitro-3-phenylacetyl-phenyl ester] | 7 ± 3 % of control | 0 ± 0 % of control | 0.7 ± 0.2 % of control |
